PMC11974063 (BMC Medicine, 2025)

Biological target: Influenza HA2 protein
Assay type: binding

Q: Which Kd does the source give for `COCCOC(=O)C1=C(C)NC(C)=C(C(=O)OC/C=C/c2ccccc2)C1c1cccc([N+](=O)[O-])c1` (stereo not shown) [cilnidipine] here?
A: The Kd was 32 nM.
